Where a SMILES comes first, the peptide text is derived from it.

6 molecules from PMC10313671, “Accelerating the prediction and discovery of peptide hydrogels with human-in-the-loop” (Nature Communications, 2023) can be followed below.

One data set can be described thus: Peptide hydrogel formation, vial-inverting method. It is filed as physicochemical. Details: key to EXP / GELATION: 0: no hydrogel; 1: hydrogel. To be noted: 30 mM peptide in ultrapure water; pH adjusted to 6.5-8.5 with 1 N NaOH, ultrasonication, standing 48 h; vial-inverting method; concentration raised 30/60/90/120 mM until gelation. As for the experimental part:
After validating the efficiency of APHC in predicting tetrapeptide hydrogels, we detailed the phase state of 165 synthesized tetrapeptides and the observed assembly behavior in an aqueous solution.
This work defines hydrogel formation as a self-supporting, non-flowing mixture of water and hydrogelator by the vial-inverting method. All purified tetrapeptides were dissolved in ultrapure water (to form a 30 mM solution initially), followed by the stepwise addition of 1 N NaOH solution to adjust the overall aqueous pH to 6.5–8.5. Meanwhile, a short-term ultrasonication treatment was applied after each pH adjustment to facilitate peptide solubilization and speed up peptide self-assembly. […] The mixture was allowed to stand in for another 48 h for complete hydrogelation. Upon the absence of gelation phenomenon during the aforementioned loops, we increased the peptide concentration (60 mM, 90 mM, and 120 mM were selected) and re-started such gelation operation loop to explore their gelation feasibility.
Take `CC[C@H](C)[C@H](NC(=O)[C@@H](NC(=O)[C@@H](N)Cc1c[nH]c2ccccc12)[C@@H](C)O)C(=O)N[C@@H](Cc1ccccc1)C(=O)O` [WTIF] (H-WTIF-OH): the State result is recorded as “gel”.

`CC(C)[C@H](NC(=O)[C@@H](N)CC(=O)O)C(=O)N[C@@H](Cc1ccccc1)C(=O)N[C@@H](Cc1c[nH]c2ccccc12)C(=O)O` [DVFW] (H-DVFW-OH): the State entry is “gel”.

For `CC(C)C[C@H](NC(=O)[C@@H](N)CC(C)C)C(=O)N[C@@H](Cc1c[nH]cn1)C(=O)N[C@@H](Cc1ccccc1)C(=O)O` [LLHF] (H-LLHF-OH), the State entry is listed as “gel”.

As for `CC[C@H](C)[C@H](N)C(=O)N[C@H](C(=O)N[C@H](C(=O)N[C@H](C(=O)O)[C@@H](C)CC)[C@@H](C)CC)C(C)C` [IVII] (H-IVII-OH), the State result is reported as “gel”.

As to `CC[C@H](C)[C@H](N)C(=O)N[C@@H](CC(C)C)C(=O)N[C@H](C(=O)N[C@H](C(=O)O)C(C)C)C(C)C` [ILVV] (H-ILVV-OH), the State result was “gel”.

The same data set, now with this note: 60 mM peptide in ultrapure water; pH 6.5-8.5 (1 N NaOH), ultrasonication, standing 48 h; vial-inverting method; no gel at 30 mM.
Regarding `CC(C)[C@H](N)C(=O)N[C@H](C(=O)N[C@H](C(=O)N[C@H](C(=O)O)C(C)C)C(C)C)C(C)C` [VVVV] (H-VVVV-OH), the State result was “gel”.

The same data set, now with this note: concentration at which the state was recorded: lowest of 30, 60, 90, 120 mM that gave a gel; 120 mM for non-gelating peptides.
Turning to `CC[C@H](C)[C@H](NC(=O)[C@@H](NC(=O)[C@@H](N)Cc1c[nH]c2ccccc12)[C@@H](C)O)C(=O)N[C@@H](Cc1ccccc1)C(=O)O` [WTIF] (H-WTIF-OH), the “Concentration” value was determined as 30000 µM.

`CC(C)[C@H](N)C(=O)N[C@H](C(=O)N[C@H](C(=O)N[C@H](C(=O)O)C(C)C)C(C)C)C(C)C` [VVVV] (H-VVVV-OH): the “Concentration” value was determined as 60000 µM.

With `CC(C)[C@H](NC(=O)[C@@H](N)CC(=O)O)C(=O)N[C@@H](Cc1ccccc1)C(=O)N[C@@H](Cc1c[nH]c2ccccc12)C(=O)O` [DVFW] (H-DVFW-OH), the “Concentration” value was determined as 30000 µM.

For the molecule `CC(C)C[C@H](NC(=O)[C@@H](N)CC(C)C)C(=O)N[C@@H](Cc1c[nH]cn1)C(=O)N[C@@H](Cc1ccccc1)C(=O)O` [LLHF] (H-LLHF-OH), the “Concentration” value stood at 30000 µM.

For `CC[C@H](C)[C@H](N)C(=O)N[C@H](C(=O)N[C@H](C(=O)N[C@H](C(=O)O)[C@@H](C)CC)[C@@H](C)CC)C(C)C` [IVII] (H-IVII-OH), the “Concentration” value amounted to 30000 µM.

Regarding `CC[C@H](C)[C@H](N)C(=O)N[C@@H](CC(C)C)C(=O)N[C@H](C(=O)N[C@H](C(=O)O)C(C)C)C(C)C` [ILVV] (H-ILVV-OH), the “Concentration” value stood at 30000 µM.

Still in this data set, the particulars now being: peptide concentration 30 mM; vial-inverting method; 1 = hydrogel, 0 = no hydrogel.
Consider `CC[C@H](C)[C@H](NC(=O)[C@@H](NC(=O)[C@@H](N)Cc1c[nH]c2ccccc12)[C@@H](C)O)C(=O)N[C@@H](Cc1ccccc1)C(=O)O` [WTIF] (H-WTIF-OH), for which the GELATION amounted to 1.

On to `CC(C)[C@H](NC(=O)[C@@H](N)CC(=O)O)C(=O)N[C@@H](Cc1ccccc1)C(=O)N[C@@H](Cc1c[nH]c2ccccc12)C(=O)O` [DVFW] (H-DVFW-OH), for which the GELATION came out at 1.

In the case of `CC(C)C[C@H](NC(=O)[C@@H](N)CC(C)C)C(=O)N[C@@H](Cc1c[nH]cn1)C(=O)N[C@@H](Cc1ccccc1)C(=O)O` [LLHF] (H-LLHF-OH), the GELATION is 1.

`CC[C@H](C)[C@H](N)C(=O)N[C@H](C(=O)N[C@H](C(=O)N[C@H](C(=O)O)[C@@H](C)CC)[C@@H](C)CC)C(C)C` [IVII] (H-IVII-OH) showed a GELATION of 1.

For the molecule `CC[C@H](C)[C@H](N)C(=O)N[C@@H](CC(C)C)C(=O)N[C@H](C(=O)N[C@H](C(=O)O)C(C)C)C(C)C` [ILVV] (H-ILVV-OH), the GELATION was 1.

The data set is the same for the next values; noted with them: peptide concentration 60 mM; vial-inverting method; 1 = hydrogel, 0 = no hydrogel.
`CC(C)[C@H](N)C(=O)N[C@H](C(=O)N[C@H](C(=O)N[C@H](C(=O)O)C(C)C)C(C)C)C(C)C` [VVVV] (H-VVVV-OH) gave a GELATION of 1.

The data set is the same for the next values; noted with them: vial-inverting method; representative hydrogels pH between 7.0 to 7.5.
On to `CC[C@H](C)[C@H](NC(=O)[C@@H](NC(=O)[C@@H](N)Cc1c[nH]c2ccccc12)[C@@H](C)O)C(=O)N[C@@H](Cc1ccccc1)C(=O)O` [WTIF] (H-WTIF-OH), for which the “hydrogel formation (in words)” value is on record as “hydrogels”.

A short description of another data set: Transmission electron microscope (negative staining) of peptide assemblies. To be noted: TEM, negative staining with uranyl acetate, 120 kV; line of the table gives 30 mM.
Protocol: We used the negative staining technique to observe the morphologies formed by peptides. A micropipette was used to load 10 μL of sample solution to a carbon-coated copper grid, and we used a piece of filter paper to remove the excess solution. After rinsing the grid with the deionized water, we used uranyl acetate to stain the sample for 1 minute and then rinsed the grid with deionized water again.
As to `CC[C@H](C)[C@H](NC(=O)[C@@H](NC(=O)[C@@H](N)Cc1c[nH]c2ccccc12)[C@@H](C)O)C(=O)N[C@@H](Cc1ccccc1)C(=O)O` [WTIF] (H-WTIF-OH), the Morphology result is recorded as “fibre”.

As to `CC(C)[C@H](NC(=O)[C@@H](N)CC(=O)O)C(=O)N[C@@H](Cc1ccccc1)C(=O)N[C@@H](Cc1c[nH]c2ccccc12)C(=O)O` [DVFW] (H-DVFW-OH), the Morphology result is on record as “fibre”.

On to `CC(C)C[C@H](NC(=O)[C@@H](N)CC(C)C)C(=O)N[C@@H](Cc1c[nH]cn1)C(=O)N[C@@H](Cc1ccccc1)C(=O)O` [LLHF] (H-LLHF-OH), for which the Morphology entry is reported as “hybrid(sphere+fibre)”.

`CC[C@H](C)[C@H](N)C(=O)N[C@H](C(=O)N[C@H](C(=O)N[C@H](C(=O)O)[C@@H](C)CC)[C@@H](C)CC)C(C)C` [IVII] (H-IVII-OH): the Morphology result is reported as “sheet”.

For `CC[C@H](C)[C@H](N)C(=O)N[C@@H](CC(C)C)C(=O)N[C@H](C(=O)N[C@H](C(=O)O)C(C)C)C(C)C` [ILVV] (H-ILVV-OH), the Morphology entry is reported as “aggregates”.

The same data set, now with this note: TEM, negative staining with uranyl acetate, 120 kV; line of the table gives 60 mM.
`CC(C)[C@H](N)C(=O)N[C@H](C(=O)N[C@H](C(=O)N[C@H](C(=O)O)C(C)C)C(C)C)C(C)C` [VVVV] (H-VVVV-OH): the Morphology result is “sheet”.

Staying with this data set, now noted: aqueous solution or hydrogel; negative staining.
As for `CC[C@H](C)[C@H](NC(=O)[C@@H](NC(=O)[C@@H](N)Cc1c[nH]c2ccccc12)[C@@H](C)O)C(=O)N[C@@H](Cc1ccccc1)C(=O)O` [WTIF] (H-WTIF-OH), the “morphology by TEM (in words)” value was “entangled nanofibers”.
